Measurements reported in patent US11510886B2, “Metformin amino acid compounds and methods of using the same” (Laboratorios Silancs S.A. DE C.V., priority 2016, dated 2022).
“Also recorded” adds a separate entry of the source. Counter-ions that a name gives are not always drawn. Like-named read-outs stand apart in the source and are kept apart here.

Key:
[1] = tested on: RAW264.7 macrophages and L1 adipocytes co-cultures; assay: Cytometric analysis of RAW + L1 co-cultures; format: cell-based, Mice; conditions: for EVENTS, F4/80^+CD86^− (first line) / %, F4/80^+CD86^− (second line) / EVENTS, F4/80^+CD86^− (second line) / %, F4/80^+CD86^− (first line) / %, F4/80^+: 10 mM, 24 hours; for %, F4/80^+CD86^− (second line): M1 macrophage percentage of total macrophages; for EVENTS, F4/80^+CD86^− (second line): M1 macrophages; for %, F4/80^+CD86^− (first line): of total macrophages; for %, F4/80^+: total macrophages; for reduction of the proportion of macrophages in M1: co-cultures
Description: One of the key pathogenic events in hyperglycemia of obese patients is the emergence of a pathogenic feedback between adipose tissue and macrophages of the immune system, in which adipocytes attract macrophages, polarizing them to pro-inflammatory phenotypes, and polarized macrophages secrete cytokines, promoting resistance to adipocyte insulin (Johnson A M, Olefsky J M. Cell. 2013; 152:673-84). To reproduce this pathogenic dialogue ex vivo and investigate the activity of SLNs compounds thereon, cytometric techniques allowing the discrimination between these cell lines and determination of phenotypic changes in macrophages in response to individual compounds (Table 18) were used.
RAW264.7 macrophages were added to adipocyte cultures, and the co-culture was maintained in DMEM supplemented with 10% FBS and antibiotics for 8 hours. […]. Next, cells were washed with PBS and collected by mechanical methods (without trypsin) to prevent protein loss from the cell surface. Cells were then blocked (FcBlock, BD Pharmingen) for 15 minutes at 4° C., and incubated for 20-30 minutes at 4° C. in darkness with anti-mouse F4/80 (eBioscience), conjugated with PerCP-Cy5.5, to mark macrophages, and anti-mouse CD86 (BioLegend), conjugated with PE-Cy7.7, to mark macrophages M1 specifically. Afterwards, cells were washed three times with PBS and centrifuged (500×g, 10 minutes, 4° C.), after which they were analyzed with a cytometer (FACSVerse, BD). In Table 6, the M1 macrophage percentage of the total macrophages analyzed (burgundy) for each treatment is highlighted in yellow.

RAW264.7 macrophages = assay: GPBP secretion by RAW264.7 macrophages stimulated with LPS and IFN-γ (ELISA); format: cell-based
Experimental: FIG. 91. […]. FIG. 94. […]. In A, an assay scheme is shown; […]. […] In B, the relative expression of IL-10 in RAW264.7 macrophages cultured with conditioned media, obtained as specified in A, is shown. The analysis was carried out by quantitative RT and PCR, using HPRT-1 as a normalizer. In this case, the reference point were cells treated with a conditioned medium in absence of N26 (RQ=1 value), and the increased IL-10 expression was verified; the analysis included non-stimulated cells cultured in a fresh, non-conditioned medium (cells).
[…]; then, they were stimulated with LPS (0.5 μg/mL) and IFN-γ (20 ng/mL) for 16 hours, after which the GPBP concentration in culture media was determined by ELISA.
FIG. 104. […]. RAW264.7 cells (control cells) were treated as indicated (10 mM) for 2 hours and subsequently stimulated with LPS (0.5 μg/mL) and IFN-γ (20 ng/mL) for 16 hours; […].
FIG. 105. […]. then, the GPBP concentration in culture media was determined by ELISA.

blood glucose level = assay: Effect of metformin compounds on the glucokinetic profile after oral glucose overload; format: in vivo, Rat; conditions: rat, 750 mg/kg referred to metformin base, mean ± SD; for Blood glucose level, 0.25 h post-glucose overload / Blood glucose level, 1 h post-glucose overload / Blood glucose level, 4 h post-glucose overload / Blood glucose level, pre-glucose overload: *p<0.05 vs vehicle; for Blood glucose level, 3 h post-glucose overload: *p<0.05, **p<0.01 vs vehicle
[2] = STZ-diabetic male rats, mean ± SD; for Absolute body weight, Day −1 / Absolute body weight, Day −2 (distribution of groups): before first TI/RI administration
[3] = molecular target: T1, GPBP, LKB1/STRADα/MO25, AMPK, AS160 (Homo sapiens, UniProt Q9Y5P4); assay: In vitro phosphorylation of GPBP with LKB1 complex, AMPK and AS160
T1 sequence (Q9Y5P4 1-624): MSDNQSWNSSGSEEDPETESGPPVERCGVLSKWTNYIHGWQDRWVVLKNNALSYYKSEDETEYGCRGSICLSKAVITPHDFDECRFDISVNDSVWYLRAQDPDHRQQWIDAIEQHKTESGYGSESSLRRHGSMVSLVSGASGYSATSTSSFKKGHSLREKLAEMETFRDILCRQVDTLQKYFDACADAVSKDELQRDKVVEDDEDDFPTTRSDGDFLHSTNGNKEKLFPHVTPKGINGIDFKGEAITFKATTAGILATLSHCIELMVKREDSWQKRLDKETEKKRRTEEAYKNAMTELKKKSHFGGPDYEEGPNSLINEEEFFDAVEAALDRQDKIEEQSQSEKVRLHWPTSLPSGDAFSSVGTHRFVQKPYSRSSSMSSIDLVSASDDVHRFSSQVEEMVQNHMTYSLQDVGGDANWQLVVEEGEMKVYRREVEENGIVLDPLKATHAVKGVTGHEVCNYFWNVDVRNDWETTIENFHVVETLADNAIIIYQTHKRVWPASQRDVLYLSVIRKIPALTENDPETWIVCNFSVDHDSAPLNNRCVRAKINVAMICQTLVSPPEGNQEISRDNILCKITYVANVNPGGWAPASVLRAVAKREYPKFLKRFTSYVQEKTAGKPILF

[4] = tested on: rat model of streptozotocin-induced diabetes; assay: Blood glucose levels in rat model of streptozotocin-induced diabetes, 14 days oral; conditions: mean ± SD; for Blood glucose levels before TI/RI administration, Day −3 (before STZ administration): rats, baseline before STZ and before first TI/RI administration

| Compound | EVENTS, F4/80^+CD86^− (first line) [1] | %, F4/80^+CD86^− (second line) [1] | EVENTS, F4/80^+CD86^− (second line) [1] | %, F4/80^+CD86^− (first line) [1] | %, F4/80^+ [1] | reduction of the proportion of macrophages in M1 [1] | Blood glucose level, 0.25 h post-glucose overload (blood glucose level) | Blood glucose level, 0.5 h post-glucose overload (blood glucose level) | Blood glucose level, 1 h post-glucose overload (blood glucose level) | Blood glucose level, 2 h post-glucose overload (blood glucose level) | Blood glucose level, 3 h post-glucose overload (blood glucose level) | Blood glucose level, 4 h post-glucose overload (blood glucose level) | Blood glucose level, 6 h post-glucose overload (blood glucose level) | Blood glucose level, pre-glucose overload (blood glucose level) | Absolute body weight, Day −1 [2] | Absolute body weight, Day −2 (distribution of groups) [2] | Blood glucose levels before TI/RI administration, Day −3 (before STZ administration) [4] | also measured |
| --- | --- | --- | --- | --- | --- | --- | --- | --- | --- | --- | --- | --- | --- | --- | --- | --- | --- | --- |
| CN(C)C(=N)N=C(N)N [Metformin hydrochloride, metformin hydrochloride, reference compound] | 551 | 65.76% | 1,058 | 34.24% | 100.00% | lowest activity | 93.75 ± 15.78 mg/dL | 89.50 ± 9.98 mg/dL | 88.25 ± 10.63 mg/dL | 74.00 ± 10.58 mg/dL | 85.75 ± 7.37 mg/dL | 83.75 ± 7.23 mg/dL | 89.00 ± 11.80 mg/dL | 77.00 ± 8.08 mg/dL | 210.43 ± 11.90 g | 223.73 ± 10.88 g | 120.00 ± 8.72 mg/dL | GPBP secretion (RAW264.7 macrophages; 10 mM, LPS 0.5 μg/mL and IFN-γ 20 ng/mL (FIG. 91)): did not induce significantly the secretion of GPBP; Absolute body weight, Day −3 (before STZ administration) ([2]; baseline before STZ and before first TI/RI administration): 231.30 ± 11.83 g; GPBP autophosphorylation in presence of LKB1 mix, AMPK and AS160 [3]: activates GPBP phosphorylation; also recorded: stimulated GPBP autophosphorylation |
| metformin lysinate | 566 | 62.96% | 962 | 37.04% | 100.00% | strongest effect | 108.33 ± 14.57 mg/dL | 101.00 ± 15.13 mg/dL | 106.00 ± 15.72 mg/dL | 94.00 ± 19.47 mg/dL | 84.67 ± 7.09 mg/dL | 89.00 ± 5.29 mg/dL | 98.33 ± 9.07 mg/dL | 93.33 ± 22.48 mg/dL | 212.73 ± 0.23 g | 217.67 ± 9.71 g | 114.00 ± 6.93 mg/dL | GPBP secretion (RAW264.7 macrophages): induces cGPBP secretion; also recorded: induced GPBP secretion strongly; biological activity (GPBP secretion) with equimolar MgCl2 or CaCl2 (RAW264.7 macrophages): reduce the biological activity; cGPBP levels in conditioned medium (RAW264.7 macrophages): approximately 200 ng/mL; GPBP autophosphorylation in presence of LKB1 mix, AMPK and AS160 ([3]; FIG. 73, listed as SLN10): inhibit it increasingly; also recorded: inhibited it progressively; incorporation of phosphate by LKB1/STRADα ([3]; GPBP present in the reaction mixture): inhibited the incorporation of phosphate by LKB1/STRADα efficiently; Blood glucose levels before TI/RI administration, Day −1 ([4]; STZ-diabetic rats, before first TI/RI administration, n.d. = all values beyond ULOD of glucometer (600 mg/dl), § n=1, ¢ n=2): 577.00^§ ± n.d.^§ mg/dL |
